Laboratory results: patent US20260286322A1, “PROTEIN TYROSINE P[…] DOMAIN PEPTIDE DIMER FOR NERVOUS SYSTEM REPAIR” (NervGen Pharma Corp., priority 2023, published 2026)

Test system: rat model of thoracic traumatic Spinal Cord Injury (SCI)
Assay: Bladder function, bladder score and urinary complications in SCI rats
Assay type: in vivo
Description: Lyophilized Compound 8 was dissolved in saline and injected s.c. at a volume of 500 μl to animal once daily from day 1-day 49 post spinal cord injury.
The dose concentration was 0.8 mg/ml, corresponding to 400 μg/rat. After reconstitutions, the solution was aliquoted and kept at −20° C. until dosing.
Spinal cord injury (SCI) was introduced to the rats by surgery using the Infinite Horizon (IH) Impactor (200 kDyn force) described by Scheff et al. 2003. The surgery was performed with aseptic procedures in a designated area under deep anesthesia. Rats were anesthetized with isoflurane (4% for induction, 2% for maintenance), and O2 (300 cm^3/min) mixture. Hair was removed from the surgical site with clippers and the skin wase scrubbed with an antiseptic detergent. To maintain body temperature the animals were placed upon a homoeothermic blanket system. The T8 Vertebra of the rat was located externally, and an incision was made exposing the vertebral column from T6-T11. A laminectomy was performed using a surgical microscope to expose the dorsal spinal cord at the thoracic (T8) vertebral level. The vertebral column was stabilized by clamping the nearest rostral and caudal vertebral processes and the injury was produced using the IH impactor device at a 200 kDyn force. After each lesion the IH graphs and impact data were reviewed and recorded, rats presenting an impact force more than 10% higher or lower than expected and/or any abnormality on the force/displacement impact graphs were excluded from the study. Additionally, animals scoring more than 1 points in the Basso, Beattie and Bresnahan (BBB) score scale at 1 days after SCI were excluded for the study as well.
Starting the day after lesion animals were observed twice a day and bladders were manually expressed using gentle abdominal pressure. Any abnormal appearance of the urine (i.e. cloudy urine, bloody urine) was recorded, and the size of the bladder estimated by trained researchers in order to obtain a categorical score (bladder score) (empty bladders=0; extra-small bladders=1; small bladders=2, medium bladders=3, large bladders=4). Urinary complications (bloody urine, foul-smelling urine, urine-stained fur) were reported and treated with SC fluids twice a day, and antibiotic treatment if the issues persisted. Bladder expression continue until spontaneous voiding was observed (empty bladder for 3 consecutive days).
During bladder expressions the size of each bladder was estimated by trained researchers and a semi-quantitative score was obtained. Daily estimates of urine retention were obtained by adding the bladder size scores of AM and PM bladder expressions. FIG. 5 illustrates the weekly average of urine retention in the rats in the testing group that were treated with Compound 8 in saline, compared to the rats in control group that were treated with vehicle control (saline).
Urinary complications including bloody urine, foul-smelling urine, and urine-stained fur were monitored. When a new complication was observed after resolutions of a previous event, it was considered repetitive. Animals would be euthanized if the complications persisted after an additional cycle of antibiotics, when bladders could not be expressed or when general health deterioration was observed.
Urinary complications, such as repetitive bloody urine, urine-stained fur and urinary infections were observed, recorded, and treated, as needed.
In this study, the effects of Compound 8 in improving the recovery of open field locomotor performance and bladder function in the SCI rats were further evaluated in comparison with Compound 4 by assessing the BBB scores and bladder scores according to the methods described in Example 3.
In this assessment, 12-13 rats were included in each of the following groups (1) Control group 1: SCI+saline alone; (2) Control group 2: SCI+Compound 4 in saline; (3) Testing group: SCI+Compound 8. […]

Q: With “TAT-Cys-rodent PTPRS wedge domain homodimer [Compound 8]” as the substance, how does the “average weekly bladder scores compared with Compound 4 or saline alone” value (RM ANOVA, Tukey, p=0.0001 vs saline, p=0.0085 vs Compound 4) read?
A: significantly lower

Q: What about the “Euthanasia due to Urinary Complications” value (during the course of the study) of the same substance?
A: none

Q: And the “Repetitive Urinary Complications (animals)” value (during the course of the study)?
A: 1 out of 13

Q: And the “Repetitive Urinary Complications (percentage)” value (during the course of the study)?
A: 8%

Q: And the “Urinary Complications (animals)” value (during the course of the study)?
A: 4 out of 13

Q: And the “Urinary Complications (percentage)” value (during the course of the study)?
A: 31%

Q: What about the “percentage of rats with bladder scores of 2 or better” value (during weeks 10 to 13) of the same substance?
A: more than 40%

Q: What about the “estimated size of bladders” value (evident from week 8 to 13) of the same substance?
A: decrease in the estimated size of bladders

Q: What about the “percentage of rats with bladder scores of 2 or better” value (starting on week 6 post-SCI) of the same substance?
A: About 25%

Q: What about the “frequency of urinary complications compared with vehicle control” value (vs rats receiving vehicle control) of the same substance?
A: less frequent

Q: And the “urine retention (weekly average of estimated bladder size scores)” value (vs vehicle control, trend noticeable starting at week 4 after SCI)?
A: less urine retention
